Values quoted from earlier work in article PMC2747598 (Journal of the American Chemical Society, 2009).

test system: HeLa cells; conditions: unconjugated complexes

Compound	Mode of cellular uptake
Ru(phen)2dppz^2+	enter by passive diffusion and do not exhibit punctate staining
Ru(phen)(bpy′)(dppz)^2+	enter by passive diffusion and do not exhibit punctate staining
[Ru+2].c1ccc(-c2ccccn2)nc1.c1ccc(-c2ccccn2)nc1.c1ccc2nc3c4cccnc4c4ncccc4c3nc2c1 [Ru(bpy)2dppz^2+]	enter by passive diffusion and do not exhibit punctate staining
